Where a SMILES comes first, the peptide text is derived from it. [ ]: non-standard residue; d: D form. Aib = CC(C)(N)C(=O)O A value given as a limit tells only on which side of the number the result lay.

Results on seven compounds are retold here after US20240239861A1, “GLUCAGON-RECEPTOR SELECTIVE POLYPEPTIDES AND METHODS OF USE THEREOF” (i2O Therapeutics, Inc., priority 2016, published 2024).

One experiment deals with human GCGR (Homo sapiens, UniProt P47871). Kind of experiment: Peptide-receptor mediated cAMP accumulation (LANCE Ultra cAMP) in CHO-K1 cells transfected with human GCGR. Type of experiment: cell-based. To be noted: Table 3.
The target in the next experiment is human GLP-1R (Homo sapiens, UniProt P43220). Kind of experiment: Peptide-receptor mediated cAMP accumulation (LANCE Ultra cAMP) in CHO-K1 cells transfected with human GLP-1R. Type of experiment: cell-based. To be noted: hGLP1 pEC50 (cAMP mean (n = 3): 11 point curve starting at 1 nM, Table 3).
Chain of human GLP-1R (P43220 24-463): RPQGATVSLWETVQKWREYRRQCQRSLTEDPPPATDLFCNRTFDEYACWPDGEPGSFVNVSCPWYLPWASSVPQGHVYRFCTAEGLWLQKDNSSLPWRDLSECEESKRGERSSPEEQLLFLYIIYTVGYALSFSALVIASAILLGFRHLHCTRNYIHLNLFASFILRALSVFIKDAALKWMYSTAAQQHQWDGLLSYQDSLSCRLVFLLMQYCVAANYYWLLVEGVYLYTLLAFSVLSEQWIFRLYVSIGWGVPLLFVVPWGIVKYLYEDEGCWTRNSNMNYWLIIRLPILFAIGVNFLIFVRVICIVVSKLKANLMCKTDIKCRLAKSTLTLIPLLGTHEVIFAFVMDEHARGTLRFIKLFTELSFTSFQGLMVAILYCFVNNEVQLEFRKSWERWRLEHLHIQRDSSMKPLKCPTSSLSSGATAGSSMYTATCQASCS

Chain of human GCGR (P47871 26-477): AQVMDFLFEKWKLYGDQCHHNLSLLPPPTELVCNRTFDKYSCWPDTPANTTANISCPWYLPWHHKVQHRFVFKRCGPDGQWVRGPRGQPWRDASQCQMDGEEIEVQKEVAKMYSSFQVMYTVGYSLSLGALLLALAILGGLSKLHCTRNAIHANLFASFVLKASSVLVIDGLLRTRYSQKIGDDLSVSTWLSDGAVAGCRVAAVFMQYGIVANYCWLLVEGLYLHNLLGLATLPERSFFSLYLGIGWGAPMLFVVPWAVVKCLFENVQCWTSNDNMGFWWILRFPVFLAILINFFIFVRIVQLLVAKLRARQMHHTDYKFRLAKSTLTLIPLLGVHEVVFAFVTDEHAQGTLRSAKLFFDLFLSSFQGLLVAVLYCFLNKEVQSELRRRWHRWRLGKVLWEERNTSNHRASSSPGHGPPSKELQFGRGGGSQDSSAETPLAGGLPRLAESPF

Take `CC(C)C[C@H](NC(=O)[C@H](Cc1ccc(O)cc1)NC(=O)[C@H](CCCCN)NC(=O)[C@H](CO)NC(=O)[C@H](Cc1ccc(O)cc1)NC(=O)[C@H](CC(=O)O)NC(=O)[C@H](CO)NC(=O)[C@@H](NC(=O)[C@H](Cc1ccccc1)NC(=O)[C@@H](NC(=O)CNC(=O)[C@H](Cc1c[nH]cn1)NC(=O)[C@@H](NC(=O)[C@@H](N)Cc1ccc(O)cc1)[C@@H](C)O)[C@@H](C)O)[C@@H](C)O)C(=O)N[C@@H](CC(=O)O)C(=O)NC(C)(C)C(=O)N[C@@H](CCCCN)C(=O)N[C@@H](CCCNC(=N)N)C(=O)N[C@@H](C)C(=O)N[C@@H](CCC(N)=O)C(=O)N[C@@H](CCC(=O)O)C(=O)N[C@@H](Cc1ccccc1)C(=O)N[C@H](C(=O)NC(C)(C)C(=O)N[C@@H](Cc1c[nH]c2ccccc12)C(=O)N[C@@H](CC(C)C)C(=O)N[C@@H](CCC(=O)O)C(=O)N[C@@H](CC(=O)O)C(=O)N[C@@H](CCC(=O)O)C(=O)N1CCC[C@H]1C(=O)N[C@@H](CO)C(=O)N[C@@H](CO)C(=O)NCC(=O)N[C@@H](CCCCN)C(=O)N1CCC[C@H]1C(=O)N1CCC[C@H]1C(=O)N1CCC[C@H]1C(=O)N[C@@H](CO)C(=O)O)C(C)C` [Compound A60] (H-YTHGTFTSDYSKYLD[Aib]KRAQEFV[Aib]WLEDEPSSGKPPPS-OH; N-terminus assumed): the EC50 was 5.01 pM on human GCGR and over 1 nM at human GLP-1R.
Taken in the same sequence, the figures for `CC(C)C[C@H](NC(=O)[C@H](Cc1ccc(O)cc1)NC(=O)[C@H](CCCCN)NC(=O)[C@H](CO)NC(=O)[C@H](Cc1ccc(O)cc1)NC(=O)[C@H](CC(=O)O)NC(=O)[C@H](CO)NC(=O)[C@@H](NC(=O)[C@H](Cc1ccccc1)NC(=O)[C@@H](NC(=O)CNC(=O)[C@H](Cc1c[nH]cn1)NC(=O)[C@@H](NC(=O)[C@@H](N)Cc1ccc(O)cc1)[C@@H](C)O)[C@@H](C)O)[C@@H](C)O)C(=O)N[C@@H](CC(=O)O)C(=O)NC(C)(C)C(=O)N[C@@H](CCCCN)C(=O)N[C@@H](CCCNC(=N)N)C(=O)N[C@@H](C)C(=O)N[C@@H](CCC(N)=O)C(=O)N[C@@H](CCC(=O)O)C(=O)N[C@@H](Cc1ccccc1)C(=O)N[C@H](C(=O)NC(C)(C)C(=O)N[C@@H](Cc1c[nH]c2ccccc12)C(=O)N[C@@H](CC(C)C)C(=O)N[C@@H](CCC(=O)O)C(=O)N[C@@H](CC(=O)O)C(=O)N[C@@H](CCC(=O)O)C(=O)N1CCC[C@H]1C(=O)N[C@@H](CO)C(=O)N[C@@H](CO)C(=O)NCC(=O)N[C@@H](C)C(=O)N1CCC[C@H]1C(=O)N1CCC[C@H]1C(=O)N1CCC[C@H]1C(=O)N[C@@H](CO)C(=O)O)C(C)C` [Compound A62] (H-YTHGTFTSDYSKYLD[Aib]KRAQEFV[Aib]WLEDEPSSGAPPPS-OH; N-terminus assumed) were 3.16 pM and over 1 nM.
Taken in the same sequence, the figures for `CC(C)C[C@H](NC(=O)[C@H](Cc1ccc(O)cc1)NC(=O)[C@H](CCCCN)NC(=O)[C@H](CO)NC(=O)[C@H](Cc1ccc(O)cc1)NC(=O)[C@H](CC(=O)O)NC(=O)[C@H](CO)NC(=O)[C@@H](NC(=O)[C@H](Cc1ccccc1)NC(=O)[C@@H](NC(=O)CNC(=O)[C@H](Cc1c[nH]cn1)NC(=O)[C@@H](NC(=O)[C@@H](N)Cc1ccc(O)cc1)[C@@H](C)O)[C@@H](C)O)[C@@H](C)O)C(=O)N[C@@H](CC(=O)O)C(=O)N[C@@H](CO)C(=O)N[C@@H](C)C(=O)N[C@@H](CCCNC(=N)N)C(=O)N[C@@H](C)C(=O)N[C@@H](CCC(N)=O)C(=O)N[C@@H](CCC(=O)O)C(=O)N[C@@H](Cc1ccccc1)C(=O)N[C@H](C(=O)N[C@@H](CCCCN)C(=O)N[C@@H](Cc1c[nH]c2ccccc12)C(=O)N[C@@H](CC(C)C)C(=O)N[C@@H](CCC(=O)O)C(=O)N[C@@H](CC(=O)O)C(=O)N[C@@H](CCC(=O)O)C(=O)N1CCC[C@H]1C(=O)N[C@@H](CO)C(=O)N[C@@H](CO)C(=O)NCC(=O)N[C@@H](C)C(=O)N1CCC[C@H]1C(=O)N1CCC[C@H]1C(=O)N1CCC[C@H]1C(=O)N[C@@H](CO)C(=O)O)C(C)C` [Compound A63] (H-YTHGTFTSDYSKYLDSARAQEFVKWLEDEPSSGAPPPS-OH) were 39.8 pM and over 1 nM.
As for `CC(C)C[C@H](NC(=O)[C@H](Cc1ccc(O)cc1)NC(=O)[C@H](CCCCN)NC(=O)[C@H](CO)NC(=O)[C@H](Cc1ccc(O)cc1)NC(=O)[C@H](CC(=O)O)NC(=O)[C@H](CO)NC(=O)[C@@H](NC(=O)[C@H](Cc1ccccc1)NC(=O)[C@@H](NC(=O)CNC(=O)[C@H](Cc1c[nH]cn1)NC(=O)[C@@H](NC(=O)[C@@H](N)Cc1ccc(O)cc1)[C@@H](C)O)[C@@H](C)O)[C@@H](C)O)C(=O)N[C@@H](CC(=O)O)C(=O)NC(C)(C)C(=O)N[C@@H](C)C(=O)N[C@@H](CCCNC(=N)N)C(=O)N[C@@H](C)C(=O)N[C@@H](CCC(N)=O)C(=O)N[C@@H](CCC(=O)O)C(=O)N[C@@H](Cc1ccccc1)C(=O)N[C@H](C(=O)NC(C)(C)C(=O)N[C@@H](Cc1c[nH]c2ccccc12)C(=O)N[C@@H](CC(C)C)C(=O)N[C@@H](CCC(=O)O)C(=O)N[C@@H](CC(=O)O)C(=O)N[C@@H](CCC(=O)O)C(=O)N1CCC[C@H]1C(=O)N[C@@H](CO)C(=O)N[C@@H](CO)C(=O)NCC(=O)N[C@@H](C)C(=O)N1CCC[C@H]1C(=O)N1CCC[C@H]1C(=O)N1CCC[C@H]1C(=O)N[C@@H](CO)C(=O)O)C(C)C` [Compound A64] (H-YTHGTFTSDYSKYLD[Aib]ARAQEFV[Aib]WLEDEPSSGAPPPS-OH; N-terminus assumed), the concentration for a half-maximal effect (EC50) was 20 pM at human GCGR and over 1 nM at human GLP-1R.
Taken in the same sequence, the figures for `CC(C)C[C@H](NC(=O)[C@H](Cc1ccc(O)cc1)NC(=O)[C@H](CCCCN)NC(=O)[C@H](CO)NC(=O)[C@H](Cc1ccc(O)cc1)NC(=O)[C@H](CC(=O)O)NC(=O)[C@H](CO)NC(=O)[C@@H](NC(=O)[C@H](Cc1ccccc1)NC(=O)[C@@H](NC(=O)CNC(=O)[C@H](Cc1c[nH]cn1)NC(=O)[C@H](CO)NC(=O)[C@@H](N)Cc1ccc(O)cc1)[C@@H](C)O)[C@@H](C)O)C(=O)N[C@@H](CC(=O)O)C(=O)NC(C)(C)C(=O)N[C@@H](C)C(=O)N[C@@H](CCCNC(=N)N)C(=O)N[C@@H](C)C(=O)N[C@@H](CCC(N)=O)C(=O)N[C@@H](CCC(=O)O)C(=O)N[C@@H](Cc1ccccc1)C(=O)N[C@H](C(=O)NC(C)(C)C(=O)N[C@@H](Cc1c[nH]c2ccccc12)C(=O)N[C@@H](CC(C)C)C(=O)N[C@@H](CCC(=O)O)C(=O)N[C@@H](CC(=O)O)C(=O)N[C@@H](CCC(=O)O)C(=O)N1CCC[C@H]1C(=O)N[C@@H](CCCCN)C(=O)N[C@@H](CO)C(=O)N[C@@H](CCCCN)C(=O)N[C@@H](CO)C(=O)N1CCC[C@H]1C(=O)N1CCC[C@H]1C(=O)N1CCC[C@H]1C(=O)N[C@@H](CO)C(N)=O)C(C)C` [Compound A67] (H-YSHGTFTSDYSKYLD[Aib]ARAQEFV[Aib]WLEDEPKSKSPPPS-NH2; N-terminus assumed) were 12.6 pM and over 1 nM.
Taken in the same sequence, the figures for `CC(C)C[C@H](NC(=O)[C@H](Cc1ccc(O)cc1)NC(=O)[C@H](CCCCN)NC(=O)[C@H](CO)NC(=O)[C@H](Cc1ccc(O)cc1)NC(=O)[C@H](CC(=O)O)NC(=O)[C@H](CO)NC(=O)[C@@H](NC(=O)[C@H](Cc1ccccc1)NC(=O)[C@@H](NC(=O)CNC(=O)[C@H](Cc1c[nH]cn1)NC(=O)[C@H](CO)NC(=O)[C@@H](N)Cc1ccc(O)cc1)[C@@H](C)O)[C@@H](C)O)C(=O)N[C@@H](CC(=O)O)C(=O)NC(C)(C)C(=O)N[C@@H](C)C(=O)N[C@@H](CCCNC(=N)N)C(=O)N[C@@H](C)C(=O)N[C@@H](CCC(N)=O)C(=O)N[C@@H](CCC(=O)O)C(=O)N[C@@H](Cc1ccccc1)C(=O)N[C@H](C(=O)NC(C)(C)C(=O)N[C@@H](Cc1c[nH]c2ccccc12)C(=O)N[C@@H](CC(C)C)C(=O)N[C@@H](CCC(=O)O)C(=O)N[C@@H](CC(=O)O)C(=O)N[C@@H](CCC(=O)O)C(=O)N1CCC[C@H]1C(=O)N[C@@H](CCCCN)C(=O)N[C@@H](CO)C(=O)N[C@@H](CCCCN)C(=O)N[C@@H](CCC(=O)O)C(=O)N1CCC[C@H]1C(=O)N1CCC[C@H]1C(=O)N1CCC[C@H]1C(=O)N[C@@H](CO)C(N)=O)C(C)C` [Compound A68] (H-YSHGTFTSDYSKYLD[Aib]ARAQEFV[Aib]WLEDEPKSKEPPPS-NH2; N-terminus assumed) were 5.01 pM and over 1 nM.
Taken in the same sequence, the figures for `CC(C)C[C@H](NC(=O)[C@H](Cc1ccc(O)cc1)NC(=O)[C@H](CCCCN)NC(=O)[C@H](CO)NC(=O)[C@H](Cc1ccc(O)cc1)NC(=O)[C@H](CC(=O)O)NC(=O)[C@H](CO)NC(=O)[C@@H](NC(=O)[C@H](Cc1ccccc1)NC(=O)[C@@H](NC(=O)CNC(=O)[C@H](Cc1c[nH]cn1)NC(=O)[C@H](CO)NC(=O)[C@@H](N)Cc1ccc(O)cc1)[C@@H](C)O)[C@@H](C)O)C(=O)N[C@@H](CC(=O)O)C(=O)N[C@@H](CO)C(=O)N[C@@H](C)C(=O)N[C@@H](CCCNC(=N)N)C(=O)N[C@@H](C)C(=O)N[C@@H](CCC(N)=O)C(=O)N[C@@H](CCC(=O)O)C(=O)N[C@@H](Cc1ccccc1)C(=O)N[C@H](C(=O)N[C@@H](CCCCN)C(=O)N[C@@H](Cc1c[nH]c2ccccc12)C(=O)N[C@@H](CC(C)C)C(=O)N[C@@H](CCC(=O)O)C(=O)N[C@@H](CC(=O)O)C(=O)N[C@@H](CCC(=O)O)C(=O)N1CCC[C@H]1C(=O)N[C@@H](CCCCN)C(=O)N[C@@H](CO)C(=O)N[C@@H](CCCCN)C(=O)N[C@@H](CCC(=O)O)C(=O)N1CCC[C@H]1C(=O)N1CCC[C@H]1C(=O)N1CCC[C@H]1C(=O)N[C@@H](CO)C(=O)O)C(C)C` [Compound A69] (H-YSHGTFTSDYSKYLDSARAQEFVKWLEDEPKSKEPPPS-OH; N-terminus assumed) were 1.58 pM and over 1 nM.
